In patent publication US9012446B2, “Amino-oxazines and amino-dihydrothiazine compounds as beta-secretase modulators and methods of use” (Amgen Inc., priority 2010, dated 2015):
Read-outs that look alike come from different tables or passages of the source.

Tests used:
[1] = molecular target: BACE (Homo sapiens, UniProt P56817); experiment: In vitro enzymatic BACE FRET assay; type: biochemical; settings: average IC50, enzyme assay; read-out: BACE 1 FRET assay
Procedure, shortened: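 BACE (0.2 nM) preincubated 1 h with serially diluted inhibitors in 0.05 M acetate pH 4.2, 10% DMSO, 100 uM genapol. FRET peptide substrate (50 nM) added, 1 h incubation, then stopped with Tris to neutral pH. Fluorescence from cleavage read at […].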

[2] = system: Aβ40; experiment: In vitro BACE cell-based assay (Aβ40 sandwich ELISA, cells stably expressing APP); settings: Homo sapiens
Procedure, shortened: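 APP-stably-expressing cells, grown 24 h in DMEM/10% FBS, received 10-point compound doses starting at 100 μM or 10 μM (0.1% DMSO final). Secreted Aβ40 in supernatants measured by sandwich ELISA with time-resolved europium fluorescence; IC50 from percent inhibition versus concentration.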

[3] = system: Abeta 40; experiment: In vivo inhibition of beta-secretase: Abeta 40 reduction in CSF and brain of the rat; settings: after 4 hrs; for inhibition in vivo at 10 mg/kg: 10 mpk
Description: In Vivo Inhibition of Beta-Secretase
Several animal models, including mouse, rat, dog, and monkey, may be used to screen for inhibition of beta-secretase activity in vivo following administration of a test compound sample. Animals used in this invention can be wild type, transgenic, or gene knockout animals. For example, the Tg2576 mouse model, prepared and conducted as described in Hsiao et al., 1996, Science 274, 99-102, and other non-transgenic or gene knockout animals are useful to analyze in vivo inhibition of Amyloid beta peptide (Abeta) production in the presence of inhibitory test compounds. Generally, 2 to 18 month old Tg2576 mice, gene knockout mice or non-transgenic animals are administered test compounds formulated in vehicles, such as cyclodextran, phosphate buffers, hydroxypropyl methylcellulose or other suitable vehicles. One to twenty-four hours following the administration of compound, animals are sacrificed, and brains as well as cerebrospinal fluid (CSF) and plasma are removed for analysis of A-beta levels and drug or test compound concentrations (Dovey et al., 2001, Journal of Neurochemistry, 76,173-181) Beginning at time 0, animals are administered by oral gavage, or other means of delivery such as intravenous injection, an inhibitory test compound of up to 100 mg/kg in a standard, conventional formulation, such as 2% hydroxypropyl methylcellulose, 1% Tween80. A separate group of animals receive 2% hydroxypropyl methylcellulose, 1% Tween80 alone, containing no test compound, and serve as a vehicle-control group. At the end of the test period, animals are sacrificed and brain tissues, plasma or cerebrospinal fluid are collected. Brains are either homogenized in 10 volumes (w/v) of 0.2% diethylamine (DEA) in 50 mM NaCl (Best et al., 2005, Journal of Pharmacology and Experimental Therapeutics, 313, 902-908), or in 10 volumes of 0.5% TritonX-100 in Tris-buffered saline (pH at about 7.6). Homogenates are centrifuged at 355,000 g, 4° C. for 30 minutes. CSF or brain supernatants are then analyzed for the presence of A-beta peptide by specific sandwich ELISA assays based on ECL (Electrochemiluminescence) technology. For example, rat Abeta40 is measured using biotinylated-4G8 (Signet) as a capture antibody and Fab40 (an in-house antibody specific to the C-terminal of Abeta40) as a detection antibody. For example, 4 hours after administration of 30 mg/kg oral dose of the test compound in 2% hydroxypropyl methylcellulose, 1% Tween80 (pH2.2) to 200 g male Sprague Dawley rats, amyloid beta peptide levels are measured for reduction by X % and Y % in cerebrospinal fluid and brain, respectively, when compared to the levels measured in the vehicle-treated rats. • Actual vehicles used: Oral: 2% HPMC, 1% Tween80, pH 2.2 • IV: 5% EtOH, 45% Propylene glycol in 5% Dextrose
The compounds of the invention may be shown to reduce the formation and/or deposition of amyloid beta peptide in the cerebrospinal fluid (CSF) as well as in the brain of a mouse or rat at either 3 mpk, 10 mpk or 30 mpk (mpk=mg compound per kg weight of the animal) dosing concentrations after 4 hrs.

[4] = HEK293, average IC50, cell assay, HEK cells
[5] = Abeta 40, rat CSF, read-out: % reduction of rat CSF levels at 10 pmk
[6] = Abeta 40, rat brain, read-out: % reduction of rat brain levels at 10 mpk
[7] = HEK293, average IC50, read-out: HEK cell assay

Sequence of BACE (P56817 46-501, species assumed): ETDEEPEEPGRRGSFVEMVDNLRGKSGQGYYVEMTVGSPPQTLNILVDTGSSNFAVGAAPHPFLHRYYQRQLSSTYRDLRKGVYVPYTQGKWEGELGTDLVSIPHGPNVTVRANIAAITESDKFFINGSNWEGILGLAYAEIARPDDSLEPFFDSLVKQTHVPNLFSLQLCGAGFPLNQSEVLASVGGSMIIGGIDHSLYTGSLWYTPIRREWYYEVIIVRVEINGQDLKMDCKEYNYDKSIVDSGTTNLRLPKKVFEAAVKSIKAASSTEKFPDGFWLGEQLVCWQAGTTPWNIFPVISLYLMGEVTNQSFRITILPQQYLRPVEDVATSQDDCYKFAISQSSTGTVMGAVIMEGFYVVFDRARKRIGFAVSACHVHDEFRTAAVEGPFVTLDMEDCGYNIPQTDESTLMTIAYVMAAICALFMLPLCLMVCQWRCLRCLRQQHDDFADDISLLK

Compound	IC50 [1]	IC50 [2, 4]	IC50 [2, 7]	inhibition in vivo at 10 mg/kg [3, 5]	inhibition in vivo at 10 mg/kg [3, 6]	% reduction of rat CSF levels ([3]; Abeta 40, rat CSF)	% reduction of rat brain levels ([3]; Abeta 40, rat brain)	% reduction of rat CSF levels ([3]; Abeta 40, rat CSF, at 30 mpk)	% reduction of rat brain levels ([3]; Abeta 40, rat brain, at 30 mpk)
NC1=N[C@@]2(CCO1)c1cc(-c3cncc(F)c3)ccc1Oc1cnc(-c3ccnc(F)c3)cc12 [Example 145, (S)-7-(5-fluoropyridin-3-yl)-3-(2-fluoropyridin-4-yl)-5′,6′-dihydrospiro[chromeno[2,3-c]pyridine-5,4′-[1,3]oxazin]-2′-amine]	5 nM	4 nM	–	78%	59%	–	–	–	–
NC1=N[C@@]2(CCO1)c1cc(-c3cccnc3F)ccc1Oc1cnc(-c3cncc(F)c3)cc12 [Example 155, (5S)-7-(2-fluoro-3-pyridinyl)-3-(5-fluoro-3-pyridinyl)-5′,6′-dihydrospiro[chromeno[2,3-c]pyridine-5,4′-[1,3]oxazin]-2′-amine]	3.8 nM	6.2 nM	–	68%	53%	–	–	–	–
NC1=N[C@@]2(CCO1)c1cc(-c3cncc(F)c3)ccc1Oc1cnc(C3=CCCOC3)cc12 [Example 146, (S)-3-(5,6-dihydro-2H-pyran-3-yl)-7-(5-fluoropyridin-3-yl)-5′,6′-dihydrospiro[chromeno[2,3-c]pyridine-5,4′-[1,3]oxazin]-2′-amine]	2.2 nM	1.5 nM	–	75%	62%	–	–	–	–
NC1=N[C@@]2(CCO1)c1cc(-c3cccnc3)ccc1Oc1c(F)cc(C3=CCCOC3)cc12 [Example 164, (S)-2′-(5,6-dihydro-2H-pyran-3-yl)-4′-fluoro-7′-(pyridin-3-yl)-5,6-dihydrospiro[[1,3]oxazine-4,9′-xanthen]-2-amine]	2.8 nM	–	2.7 nM	35%	12%	–	–	–	–
NC1=N[C@@]2(CCS1)c1cc(-c3cccnc3F)ccc1Oc1c(F)cc(C3=CCCOC3)cc12 [Example 201, (S)-2′-(5,6-dihydro-2H-pyran-3-yl)-4′-fluoro-7′-(2-fluoropyridin-3-yl)-5,6-dihydrospiro[[1,3]thiazine-4,9′-xanthen]-2-amine]	1.4 nM	–	9.7 nM	–	–	–	–	80% at 30 mpk	65% at 30 mpk
NC1=N[C@@]2(CCO1)c1cc(-c3cccnc3)ccc1Oc1c2cc(-c2ccnc(F)c2)nc1F [Example 239, (S)-1-fluoro-3-(2-fluoropyridin-4-yl)-7-(pyridin-3-yl)-5′,6′-dihydrospiro[chromeno[2,3-c]pyridine-5,4′-[1,3]oxazin]-2′-amine]	35 nM	–	16.1 nM	68%	48%	–	–	–	–
NC1=N[C@@]2(CCO1)c1cc(-c3cccnc3F)ccc1Oc1cnc(-c3ccnc(F)c3)cc12 [Example 149, (S)-7-(2-fluoropyridin-3-yl)-3-(2-fluoropyridin-4-yl)-5′,6′-dihydrospiro[chromeno[2,3-c]pyridine-5,4′-[1,3]oxazin]-2′-amine]	4.8 nM	3.8 nM	–	80%	62%	–	–	–	–
NC1=N[C@@]2(CCO1)c1cc(-c3cccnc3F)ccc1Oc1cnc(C3=CCCOC3)cc12 [Example 153, (S)-3-(5,6-dihydro-2H-pyran-3-yl)-7-(2-fluoropyridin-3-yl)-5′,6′-dihydrospiro[chromeno[2,3-c]pyridine-5,4′-[1,3]oxazin]-2′-amine]	2 nM	2.6 nM	–	78%	64%	–	–	–	–
NC1=N[C@@]2(CCO1)c1cc(-c3cccnc3)ccc1Oc1c(F)cc(C3=CCOCC3)cc12 [Example 156, (4S)-2′-(3,6-dihydro-2H-pyran-4-yl)-4′-fluoro-7′-(3-pyridinyl)-5,6-dihydrospiro[1,3-oxazine-4,9′-xanthen]-2-amine]	4.8 nM	4.2 nM	–	27%	8%	–	–	–	–
CC(C)(C)COc1cc2c(cn1)Oc1ccc(-c3cccnc3)cc1[C@@]21COCC(N)=N1 [Example 119, (S)-3-(neopentyloxy)-7-(pyridin-3-yl)-2′,6′-dihydrospiro[chromeno[2,3-c]pyridine-5,3′-[1,4]oxazin]-5′-amine]	0.6 nM	0.4 nM	–	–	–	5% at 3 mpk	6% at 3 mpk	–	–

Second part, led by results:

IC50 [1]	IC50 [2, 4]	IC50 [2, 7]	Compound	inhibition in vivo at 10 mg/kg [3, 5]	inhibition in vivo at 10 mg/kg [3, 6]	% reduction of rat CSF levels ([3]; Abeta 40, rat CSF)	% reduction of rat brain levels ([3]; Abeta 40, rat brain)	% reduction of rat CSF levels ([3]; Abeta 40, rat CSF, at 30 mpk)	% reduction of rat brain levels ([3]; Abeta 40, rat brain, at 30 mpk)
0.5 nM	1.8 nM	–	NC1=N[C@@]2(CCO1)c1cc(-c3cccnc3F)ccc1Oc1c2cc(-c2ccnc(F)c2)nc1F [Example 107, (S)-1-fluoro-7-(2-fluoropyridin-3-yl)-3-(2-fluoropyridin-4-yl)-5′,6′-dihydrospiro[chromeno[2,3-c]pyridine-5,4′-[1,3]oxazin]-2′-amine]	82%	72%	–	–	–	–
0.6 nM	0.7 nM	–	CC(C)(C)COc1cc2c(cn1)Oc1ccc(-c3cncc(F)c3)cc1[C@@]21COCC(N)=N1 [Example 120, (S)-7-(5-fluoropyridin-3-yl)-3-(neopentyloxy)-2′,6′-dihydrospiro[chromeno[2,3-c]pyridine-5,3′-[1,4]oxazin]-5′-amine]	–	–	30% at 3 mpk	24% at 3 mpk	–	–
0.3 nM	0.5 nM	–	NC1=N[C@@]2(COC1)c1cc(-c3cccnc3)ccc1Oc1c(F)cc(C3=CCCOC3)cc12 [Example 63, (S)-2′-(5,6-dihydro-2H-pyran-3-yl)-4′-fluoro-7′-(pyridin-3-yl)-2,6-dihydrospiro[[1,4]oxazine-3,9′-xanthen]-5-amine]	19%	16%	–	–	–	–
0.5 nM	0.7 nM	–	NC1=N[C@@]2(COC1)c1cc(-c3cccnc3F)ccc1Oc1ncc(-c3ccc(F)cc3)cc12 [Example 91, (S)-3-(4-fluorophenyl)-7-(2-fluoropyridin-3-yl)-2′,6′-dihydrospiro[chromeno[2,3-b]pyridine-5,3′-[1,4]oxazin]-5′-amine]	29%	3%	–	–	–	–
0.4 nM	–	0.4 nM	NC1=N[C@@]2(COC1)c1cc(-c3cccnc3F)ccc1Oc1c2cc(C2=CCCOC2)nc1F [Example 249, (S)-3-(5,6-dihydro-2H-pyran-3-yl)-1-fluoro-7-(2-fluoropyridin-3-yl)-2′,6′-dihydrospiro[chromeno[2,3-c]pyridine-5,3′-[1,4]oxazin]-5′-amine]	72%	59%	–	–	–	–
0.6 nM	1.2 nM	–	Cc1ccc(-c2cnc3c(c2)[C@]2(COCC(N)=N2)c2cc(-c4cccnc4F)ccc2O3)cc1 [Example 90, (S)-7-(2-fluoropyridin-3-yl)-3-(p-tolyl)-2′,6′-dihydrospiro[chromeno[2,3-b]pyridine-5,3′-[1,4]oxazin]-5′-amine]	–	–	7% at 3 mpk	0% at 3 mpk	–	–
0.4 nM	0.8 nM	–	NC1=N[C@@]2(COC1)c1cc(-c3cccnc3F)ccc1Oc1cnc(N3CCC(F)(F)C3)cc12 [Example 74, (5S)-3-(3,3-difluoro-1-pyrrolidinyl)-7-(2-fluoro-3-pyridinyl)-6′H-spiro[chromeno[2,3-c]pyridine-5,3′-[1,4]oxazin]-5′-amine]	47%	26%	–	–	–	–
